Read-outs that look alike come from different tables or passages of the source.
How the values were obtained:
[1] = test system: CEM-SS cells; test: Compound cytotoxicity (MTS) in the HIV cytoprotection assay; format: cell-based; settings: for CC50: Concentration resulting in 50% cell death; for Cell viability %: 10 μM, CEM-SS cells
Protocol: (§1) The antiviral activity of newly synthesized analogues of chemotype 7 was evaluated against HIV-1IIIB in CEM-SS cells using an assay based on viral cytopathic effect (CPE). In this assay, the reduction of CPE was used to indicate the antiviral activity of a compound.
Briefly virus and cells were mixed in the presence of test compound and incubated for 6 days. […] Each assay plate contained cell control wells (cells only), virus control wells (cells plus virus), compound toxicity control wells (cells plus compound only), compound colorimetric control wells (compound only) as well as experimental wells (compound plus cells plus virus). […] Each assay included AZT as a positive control.

[2] = test system: HIV-1 clone 1556-1 (Y143C); format: cell-based; settings: EC50(mutant)/EC50(WT)
[3] = test system: HIV-1IIIB; test: HIV-1 cytoprotection (CPE reduction) antiviral assay; format: cell-based; settings: for inhibition at 10 µM: read-out: CPE reduction %; for antiviral activity, in words: single concentration 10 μM, CPE assay
Protocol: as §1
Briefly virus and cells were mixed in the presence of test compound and incubated for 6 days. […] Each assay plate contained cell control wells (cells only), virus control wells (cells plus virus), compound toxicity control wells (cells plus compound only), compound colorimetric control wells (compound only) as well as experimental wells (compound plus cells plus virus). Cytoprotection and compound cytotoxicity were assessed by MTS (CellTiter® 96 Reagent, Promega, Madison Wis.) and the EC50 (concentration inhibiting virus replication by 50%), CC50 (concentration resulting in 50% cell death) and a calculated TI (therapeutic index CC50/EC50) were provided. Each assay included AZT as a positive control.

[4] = test system: HIV-1 clone 8070-2 (G140S/Q148H); format: cell-based; settings: EC50(mutant)/EC50(WT)
[5] = test system: HIV-1 clone 8070-1 (G140S/Y143H/Q148H); format: cell-based; settings: EC50(mutant)/EC50(WT)
[6] = test system: HIV-1 clone 4736-2 (N155H); format: cell-based; settings: EC50(mutant)/EC50(WT)
[7] = target: T1, HIV-1 integrase (Human immunodeficiency virus type 1 group M subtype B, UniProt P04585); test: HIV-1 integrase strand transfer (INST) assay; format: biochemical
T1 construct: HIV integrase was expressed and purified as previously reported; made in house; host or cells: Escherichia coli
Protocol: HIV integrase was expressed and purified as previously reported.^43 Inhibition assays were performed using a modified protocol of a reported method.^43 Briefly, 2.1 μL of compound suspended in DMSO was placed in duplicate into a Black 96 well non-binding plate (coming 3991). Compounds were plated in duplicate to a final concentration of 0.13-100 μM. To each well of the plate 186.9 μL of reaction mixture without DNA substrate was added (10 mM HEPES pH 7.5, 10% glycerol w/v, 10 mM MnCl2, 1 mM DTT, 1 μM integrase). The enzyme was incubated with inhibitor for 10 min at 25° C. after which the reaction was initiated by the addition of 21 μL of 500 nM oligo (5′ biotin […] annealed with […] 3′ Cy5). Reactions were incubated at 37° C. for 30 min and then quenched by the addition of 5.2 μL 500 mM EDTA. Each reaction was moved (200 μL) to a MultiScreen HTS PCR plate (Millipore MSSLBPC10) containing 20 μL streptavidin agarose beads (Life Technologies S951) and incubated with shaking for 30 min. A vacuum manifold was used to remove the reaction mixture and the beads were similarly washed 3 times with wash buffer (0.05% SDS, 1 mM EDTA in PBS). The plates were further washed 3 times with 200 μL 50 mM NaOH to denature DNA not covalently linked to the biotin modification. For each denaturation step the plate was incubated with shaking at 25° C. for 5 min and the NaOH was removed by centrifugation at 1000 g for 1 min. The reaction products were eluted from the beads by the addition of 150 μL formamide. The plate was incubated at 25° C. for 10 min and read directly at 635/675 in a SpectraMax i3 plate reader (Molecular Devices). Expression and purification of the recombinant IN in Escherichia coli were performed as previously reported^39, 44 with addition of 10% glycerol to all buffers. Preparation of oligonucleotide substrates has been described.^45 Integrase reactions were performed in 10 μL with 400 nM of recombinant IN, 20 nM of 5′-end [^32P]-labeled oligonucleotide substrate and inhibitors at various concentrations. Solutions of 10% DMSO without inhibitors were used as controls. Reactions were incubated at 37° C. (60 minutes) in buffer containing 50 mM MOPS, pH 7.2, 7.5 mM MgCl2, and 14.3 mM 2-mercaptoethanol. Reactions were stopped by addition of 10 μL of loading dye (10 mM EDTA, 98% deionized formamide, 0.025% xylene cyanol and 0.025% bromophenol blue). Reactions were then subjected to electrophoresis in 20% polyacrylamide-7 M urea gels. Gels were dried and reaction products were visualized and quantitated with a Typhoon 8600 (GE Healthcare, Little Chalfont, Buckinghamshire, UK). Densitometric analyses were performed using ImageQuant from Molecular Dynamics Inc. The concentrations at which enzyme activity was reduced by 50% (IC50) were determined using “Prism” software (GraphPad Software, San Diego, Calif.) for nonlinear regression to fit dose-response data to logistic curve models.

[8] = Human immunodeficiency virus 1, 10 μM, HIV-1IIIB in CEM-SS cells
[9] = Human immunodeficiency virus 1, CEM-SS
[10] = Human immunodeficiency virus 1, summary of Table 2, read-out: EC50

Structure (SMILES)	CC50 [1] [nM]	Fold-resistance [2]	EC50 ([3]; Concentration inhibiting virus replication by 50%, dose response, read-out: EC50) [nM]	Fold-resistance [4]	Fold-resistance [5]	Fold-resistance [6]	Cell viability % [1] [%]	inhibition at 10 µM [3, 8] [%]	antiviral activity, in words [3]	IC50 ([7]; read-out: INST IC50) [nM]	EC50 ([3]; Human immunodeficiency virus 1) [nM]	inhibition at 10 µM [3, 9] [%]	EC50 [3, 10] [nM]	IC50 ([7]; read-out: IC50 (ST)) [nM]
Cc1cn([C@H]2C[C@H](N=[N+]=[N-])[C@@H](CO)O2)c(=O)[nH]c1=O [AZT, reference compound]	> 10000	1.4	80	0.5	0.9	0.7	–	–	–	–	–	–	–	–
CCNc1[nH]c(=O)n(O)c(=O)c1C(=O)NCCc1ccccc1 [Compound 7-xxvi, 1-(Hydroxy)-4-(ethylamino)-1,2,3,6-tetrahydro-2,6-dioxo-N-phenethylpyrimidine-5-carboxamide]	–	–	–	–	–	–	87	99	largely retained	100 ± 30	–	–	–	–
CCNc1[nH]c(=O)n(O)c(=O)c1C(=O)NCc1ccccc1 [Compound 7-vi, N-Benzyl-1-(hydroxy)-4-(ethylamino)-1,2,3,6-tetrahydro-2,6-dioxopyrimidine-5-carboxamide]	23000	–	–	–	–	–	100	–	–	33 ± 4	61	100	15 to 61	21 to 77
CCNc1[nH]c(=O)n(O)c(=O)c1C(=O)NCc1cccc(F)c1 [Compound 7-xv, N-(3-Fluorobenzyl)-1-(hydroxy)-4-(ethylamino)-1,2,3,6-tetrahydro-2,6-dioxopyrimidine-5-carboxamide]	–	–	–	–	–	–	90	100	–	68 ± 7	–	–	–	–
CCNc1[nH]c(=O)n(O)c(=O)c1C(=O)NCc1cccc(Cl)c1F [Compound 7-xxiii, N-(3-Chloro-2-fluorobenzyl)-1-(hydroxy)-4-(ethylamino)-1,2,3,6-tetrahydro-2,6-dioxopyrimidine-5-carboxamide]	18000	0.4	–	13	6.3	2.4	100	100	–	21 ± 2	15	–	–	–
CCNc1[nH]c(=O)n(O)c(=O)c1C(=O)NCc1ccc(F)cc1 [Compound 7-xvi, N-(4-Fluorobenzyl)-1-(hydroxy)-4-(ethylamino)-1,2,3,6-tetrahydro-2,6-dioxopyrimidine-5-carboxamide]	19000	–	–	–	–	–	99	–	–	49 ± 4	33	100	15 to 61	21 to 77
CCNc1[nH]c(=O)n(O)c(=O)c1C(=O)Nc1ccccc1 [Compound 7-xxv, 1-(Hydroxy)-4-(ethylamino)-1,2,3,6-tetrahydro-2,6-dioxo-N-phenylpyrimidine-5-carboxamide]	–	–	–	–	–	–	27	11	complete loss of activity	35000 ± 17000	–	–	–	–
CNc1[nH]c(=O)n(O)c(=O)c1C(=O)NCc1cccc(F)c1 [Compound 7-xii, N-(3-Fluorobenzyl)-1-(hydroxy)-1,2,3,6-tetrahydro-4-(methylamino)-2,6-dioxopyrimidine-5-carboxamide]	–	–	–	–	–	–	95	100	–	250 ± 48	–	–	–	–
CCNc1[nH]c(=O)n(O)c(=O)c1C(=O)NCc1cc(F)cc(F)c1 [Compound 7-xix, N-(3,5-Difluorobenzyl)-1-(hydroxy)-4-(ethylamino)-1,2,3,6-tetrahydro-2,6-dioxopyrimidine-5-carboxamide]	–	–	–	–	–	–	100	100	–	230 ± 62	–	–	–	–
CC(C)(C)Nc1[nH]c(=O)n(O)c(=O)c1C(=O)NCc1ccccc1 [Compound 7-x, 4-(tert-Butylamino)-N-benzyl-1-(hydroxy)-1,2,3,6-tetrahydro-2,6-dioxopyrimidine-5-carboxamide]	–	–	–	–	–	–	91	98	–	81 ± 15	–	–	–	–
